From PMC8508963 (2021)

Assays:
Experiment in all cases: fluorescence titration and Job plot
[1] = test system: m-tel24 (DNA, G4) TTGGGTTAGGGTTAGGGTTAGGGA; conditions: 100 mM K+ (KCl) plus 20 mM potassium phosphate; pH 7, 20 °C, Job total 2 µM; highest fluorescence; groove binding suggested by induced CD
[2] = test system: ds12 (DNA, duplex) CGCGAATTCGCG; conditions: 100 mM K+ (KCl) plus 20 mM potassium phosphate; pH 7, 20 °C, Job total 2 µM; lowest fluorescence enhancement
[3] = test system: M2 (DNA, G4) TAGGGACGGGCGGGCAGGGT; conditions: 100 mM K+ (KCl) plus 20 mM potassium phosphate; pH 7, 20 °C, Job total 2 µM; medium fluorescence enhancement

binding [1]: yes | binding [2]: yes | binding [3]: yes
Structure (SMILES): CN(C)CCCNC(=O)c1ccc2[nH]c3c([nH]c2c1)c1c(=O)n(CCCN(C)C)c(=O)c2ccc4c(=O)n(CCCN(C)C)c(=O)c3c4c21
